Data on 25 molecules can be found in PMC9506414, “Novel 2,6,9-Trisubstituted Purines as Potent CDK Inhibitors Alleviating Trastuzumab-Resistance of HER2-Positive Breast Cancers” (Pharmaceuticals, 2022).

The test system of one experiment is HCC1954 cells. Kind of experiment: Antiproliferation assay (Cell-titer Glo, 72 h). Type of experiment: cell-based. As to conditions: Homo sapiens, 72 h, means and standard deviations from three independent assays, read-out: HCC1954 (GI50/μM). How it is done: (§1) Breast-cancer cell lines (SK-Br3, HCC-1954) were purchased from Korea Cell Line Bank (Seoul, Korea) and were cultured in RPMI medium supplemented with 10% FBS and penicillin/streptomycin (Welgene, Seoul, Korea). All cell lines were maintained at 37 °C in a cell incubator in the presence of 5% CO2.
(§2) Breast-cancer cells in culture media (100 μL volume/well, 5000 SK-Br3 cells/well, 1000 HCC-1954 cells/well) were seeded in tissue culture-treated 96-well plates, and incubated at a cell incubator for 24 h. Serially diluted compounds (3-fold, 10 point from 10 mM, duplicated) were pre-plated and 500 nL of compound solutions were pin-transferred to the cells in the assay plates using pintool system (JANUS liquid handler, PerkinElmer, Waltham, MA, USA) and incubated at a cell incubator for 72 h. Cell-titer Glo^TM reagent (50 μL, Promega Corp., Madison, WI, USA) was added to each well, and the luminescence signal was read using an Envision^TM plate reader (PerkinElmer, Waltham, MA, USA). The titration curve fitting and IC50 values were generated using Prism 7.0 s/w (GraphPad, San Diego, CA, USA).

For another experiment, the system named is SK-Br3 cells. Kind of experiment: Antiproliferation assay (Cell-titer Glo, 72 h). As to conditions: Homo sapiens, SK-BR-3; 72 h; means and standard deviations from three independent assays; read-out: SK-Br3 (GI50/μM). It counts as cell-based. How it is done: as §1, §2
The target of a further experiment is CDK12/CyclinK (Homo sapiens, UniProt Q9NYV4). Kind of experiment: In vitro CDK12/cyclinK kinase assay. Type of experiment: biochemical. Also noted: purchased Reaction Biology Corp. (CRO that ran the assay). How it is done:
In vitro CDK12/cyclinK assays for all compounds and in vitro kinome-wide inhibition profiling of 30d at 10 μM were performed by a CRO company (Reaction Biology Corp., San Diego, CA, USA).

[1] abbreviates: Tables 1-4, read-out: CDK12/CyclinK (IC50/μM).
Setting [2] is: Table 5, means and standard deviations from three independent assays, read-out: CDK12/CyclinK (IC50/μM).

Where two headings read alike, the source gives them in different places.

CDK12/CyclinK, sequence (Q9NYV4 whole entry): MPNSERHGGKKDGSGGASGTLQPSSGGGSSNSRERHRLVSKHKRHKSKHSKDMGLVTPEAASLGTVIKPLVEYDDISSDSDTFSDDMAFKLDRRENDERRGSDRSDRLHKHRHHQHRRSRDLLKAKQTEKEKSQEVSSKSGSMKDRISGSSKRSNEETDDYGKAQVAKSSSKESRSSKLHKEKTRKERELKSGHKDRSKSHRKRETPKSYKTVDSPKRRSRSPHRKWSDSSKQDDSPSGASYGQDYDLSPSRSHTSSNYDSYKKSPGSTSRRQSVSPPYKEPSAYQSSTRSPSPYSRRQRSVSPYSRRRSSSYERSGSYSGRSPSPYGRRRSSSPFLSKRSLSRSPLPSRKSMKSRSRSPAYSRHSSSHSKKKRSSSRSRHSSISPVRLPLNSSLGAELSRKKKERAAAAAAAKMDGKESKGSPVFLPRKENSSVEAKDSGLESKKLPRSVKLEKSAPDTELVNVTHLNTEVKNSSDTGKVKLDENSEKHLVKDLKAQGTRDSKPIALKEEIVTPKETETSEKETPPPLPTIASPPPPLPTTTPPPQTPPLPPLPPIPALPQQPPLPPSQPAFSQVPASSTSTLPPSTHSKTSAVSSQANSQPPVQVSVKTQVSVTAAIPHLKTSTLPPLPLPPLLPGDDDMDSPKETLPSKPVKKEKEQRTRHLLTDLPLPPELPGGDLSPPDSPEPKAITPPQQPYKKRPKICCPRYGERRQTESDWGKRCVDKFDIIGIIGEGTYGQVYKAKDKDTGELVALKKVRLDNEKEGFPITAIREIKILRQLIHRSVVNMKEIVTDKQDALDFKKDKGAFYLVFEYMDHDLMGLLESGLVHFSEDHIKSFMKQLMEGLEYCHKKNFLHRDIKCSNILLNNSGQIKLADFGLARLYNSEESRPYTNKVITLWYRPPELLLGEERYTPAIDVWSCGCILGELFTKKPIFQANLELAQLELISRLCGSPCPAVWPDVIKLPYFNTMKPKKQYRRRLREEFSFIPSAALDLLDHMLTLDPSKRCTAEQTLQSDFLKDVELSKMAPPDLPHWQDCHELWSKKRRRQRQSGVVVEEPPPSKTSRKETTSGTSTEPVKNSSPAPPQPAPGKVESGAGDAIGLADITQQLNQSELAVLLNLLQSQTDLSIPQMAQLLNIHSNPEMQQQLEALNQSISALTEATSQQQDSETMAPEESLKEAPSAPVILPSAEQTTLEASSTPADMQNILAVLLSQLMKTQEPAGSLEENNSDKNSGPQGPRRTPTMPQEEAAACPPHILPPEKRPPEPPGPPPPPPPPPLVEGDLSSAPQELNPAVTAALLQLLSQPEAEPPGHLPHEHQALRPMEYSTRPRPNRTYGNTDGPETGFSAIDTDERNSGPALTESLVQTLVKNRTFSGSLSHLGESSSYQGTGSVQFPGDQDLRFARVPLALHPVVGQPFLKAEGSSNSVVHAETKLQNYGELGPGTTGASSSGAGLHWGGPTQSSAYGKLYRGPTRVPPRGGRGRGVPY
CDK12/CyclinK, sequence (O75909 whole entry partner): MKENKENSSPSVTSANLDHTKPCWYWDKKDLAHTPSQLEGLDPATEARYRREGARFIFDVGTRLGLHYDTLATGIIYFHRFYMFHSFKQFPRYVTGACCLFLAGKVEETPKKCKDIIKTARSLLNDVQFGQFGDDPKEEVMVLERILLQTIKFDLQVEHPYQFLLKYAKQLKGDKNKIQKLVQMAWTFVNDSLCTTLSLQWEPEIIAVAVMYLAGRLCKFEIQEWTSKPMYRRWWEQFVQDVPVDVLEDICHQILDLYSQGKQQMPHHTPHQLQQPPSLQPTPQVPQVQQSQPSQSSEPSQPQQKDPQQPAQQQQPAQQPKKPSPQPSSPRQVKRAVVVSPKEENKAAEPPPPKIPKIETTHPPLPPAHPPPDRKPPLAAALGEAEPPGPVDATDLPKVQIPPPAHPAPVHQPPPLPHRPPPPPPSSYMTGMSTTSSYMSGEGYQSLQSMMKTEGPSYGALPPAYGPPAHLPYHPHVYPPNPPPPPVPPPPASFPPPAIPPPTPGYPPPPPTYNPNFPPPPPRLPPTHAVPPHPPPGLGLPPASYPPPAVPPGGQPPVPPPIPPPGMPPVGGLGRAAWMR

Consider `CC(C)n1cnc2c(NCc3ccc(-c4cccnc4)nc3)nc(-c3ccn[nH]3)nc21` [Compound 18m, N-([2,3′-Bipyridin]-5-ylmethyl)-9-isopropyl-2-(1H-pyrazol-5-yl)-9H-purin-6-amine], for which the GI50 in the experiment with HCC1954 cells is 1.13 ± 0.05 µM; in the experiment on SK-Br3 cells, 1.72 ± 0.336 µM. Also, the IC50 at CDK12/CyclinK (setting [1]) came out at 0.501 µM.

As for `Cc1ccc(-c2nc(NCc3ccc(-c4cccnc4)nc3)c3ncn(C(C)C)c3n2)cn1` [Compound 18h, N-([2,3′-Bipyridin]-5-ylmethyl)-9-isopropyl-2-(6-methylpyridin-3-yl)-9H-purin-6-amine], the results for the GI50 in the experiment on HCC1954 cells and with SK-Br3 cells were 0.942 ± 0.125 µM and 1.27 ± 0.33 µM, respectively. For the same molecule, the IC50 at CDK12/CyclinK (setting [1]) was determined as 0.09 µM.

`CC(C)n1cnc2c(NCc3ccc(-c4cccnc4)nc3)nc(-c3ccnc(F)c3)nc21` [Compound 21b, N-([2,3′-Bipyridin]-5-ylmethyl)-2-(2-fluoropyridin-4-yl)-9-isopropyl-9H-purin-6-amine]: the GI50 worked out at 1.27 ± 0.021 µM in the experiment on HCC1954 cells and 1.68 ± 0.267 µM with SK-Br3 cells. On CDK12/CyclinK (setting [1]), the IC50 amounted to 0.164 µM.

Take `CC(C)n1cnc2c(NCc3ccc(-c4cccnc4)nc3)nc(-c3ccc(NCCCO)nc3)nc21` [Compound 22b, 3-((5-(6-(([2,3′-Bipyridin]-5-ylmethyl)amino)-9-isopropyl-9H-purin-2-yl)pyridin-2-yl)amino)propan-1-ol]: the GI50 in the experiment on HCC1954 cells was determined as 0.977 ± 0.07 µM; in the experiment with SK-Br3 cells, 1.18 ± 0.118 µM. Also, the IC50 at CDK12/CyclinK (setting [1]) was found to be 0.304 µM.

Turning to `CC(C)n1cnc2c(NCc3ccc(-c4cccnc4)nc3)nc(-c3ccc4[nH]ncc4c3)nc21` [Compound 18f, N-([2,3′-Bipyridin]-5-ylmethyl)-2-(1H-indazol-5-yl)-9-isopropyl-9H-purin-6-amine], the values for the GI50 in the experiment with HCC1954 cells and with SK-Br3 cells were 1.86 ± 0.148 µM and 2.58 ± 0.167 µM, respectively. Moreover, the IC50 at CDK12/CyclinK (setting [1]) came out at 0.104 µM.

As to `CC(C)n1cnc2c(NCc3ccc(-c4cccnc4)nc3)nc(-c3ccnc(NCCCO)c3)nc21` [Compound 22d, 3-((4-(6-(([2,3′-Bipyridin]-5-ylmethyl)amino)-9-isopropyl-9H-purin-2-yl)pyridin-2-yl)amino)propan-1-ol], the GI50 with HCC1954 cells was 0.387 ± 0.037 µM; in the experiment on SK-Br3 cells, 0.48 ± 0.026 µM. The IC50 at CDK12/CyclinK (setting [1]) was 0.113 µM.

As to `c1cncc(-c2ccc(CNc3nc(-c4cccnc4)nc4c3ncn4C3CCCC3)cn2)c1` [Compound 28b, N-([2,3′-Bipyridin]-5-ylmethyl)-9-cyclopentyl-2-(pyridin-3-yl)-9H-purin-6-amine], the GI50 with HCC1954 cells turned out to be 2.14 ± 0.176 µM; with SK-Br3 cells it was 2.6 ± 0.31 µM. In addition, the IC50 on CDK12/CyclinK (setting [1]) worked out at 0.293 µM.

Turning to `Cc1ccc(-c2ccc(CNc3nc(-c4cccnc4)nc4c3ncn4C(C)C)nc2)cn1` [Compound 17c, 9-Isopropyl-N-((6′-methyl-[3,3′-bipyridin]-6-yl)methyl)-2-(pyridin-3-yl)-9H-purin-6-amine], the GI50 in the experiment with HCC1954 cells came to 13.6 ± 1.16 µM; with SK-Br3 cells it was 24.6 ± 4.99 µM. The IC50 on CDK12/CyclinK (setting [1]) is 1.11 µM.

For `CC(C)n1cnc2c(NCc3ccc(-c4cccnc4)nc3)nc(-c3ccc(N)cc3)nc21` [Compound 19c, N-([2,3′-Bipyridin]-5-ylmethyl)-2-(4-aminophenyl)-9-isopropyl-9H-purin-6-amine], the results for the GI50 in the experiment with HCC1954 cells and in the experiment on SK-Br3 cells were 0.497 ± 0.088 µM and 0.795 ± 0.063 µM, respectively. Besides, at CDK12/CyclinK (setting [1]), the IC50 worked out at 0.15 µM.

As for `CN(C)C/C=C/C(=O)Nc1ccc(C(=O)N2CCC[C@@H](Nc3ncc(Cl)c(-c4c[nH]c5ccccc45)n3)C2)cc1` [THZ531, reference compound], the GI50 with HCC1954 cells was 0.195 ± 0.05 µM; in the experiment with SK-Br3 cells it was 0.03 ± 0.006 µM. Further, the IC50 at CDK12/CyclinK (setting [2]) is 0.051 ± 0.007 µM.

For `CC(C)n1cnc2c(NCc3ccc(-c4cccnc4)nc3)nc(-c3cccc(N)c3)nc21` [Compound 19b, N-([2,3′-Bipyridin]-5-ylmethyl)-2-(3-aminophenyl)-9-isopropyl-9H-purin-6-amine], the GI50 with HCC1954 cells amounted to 0.341 ± 0.059 µM; in the experiment on SK-Br3 cells it was 0.614 ± 0.055 µM. For the same molecule, the IC50 on CDK12/CyclinK (setting [1]) turned out to be 0.17 µM.

Regarding `CC(C)n1cnc2c(NCc3ccc(-c4ccncc4)nc3)nc(-c3cccnc3)nc21` [Compound 17g, N-([2,4′-Bipyridin]-5-ylmethyl)-9-isopropyl-2-(pyridin-3-yl)-9H-purin-6-amine], the GI50 is 0.494 ± 0.048 µM in the experiment on HCC1954 cells and 0.804 ± 0.095 µM in the experiment with SK-Br3 cells. Further, at CDK12/CyclinK (setting [1]), the IC50 came to 0.153 µM.

In the case of `CC(C)n1cnc2c(NCc3ccc(-c4cccnc4)nc3)nc(-c3ccc4[nH]ccc4c3)nc21` [Compound 18d, N-([2,3′-Bipyridin]-5-ylmethyl)-2-(1H-indol-5-yl)-9-isopropyl-9H-purin-6-amine], the GI50 in the experiment on HCC1954 cells amounted to 1.35 ± 0.243 µM; with SK-Br3 cells, 1.5 ± 0.112 µM. For the same molecule, the IC50 at CDK12/CyclinK (setting [1]) came out at 0.155 µM.

Consider `Cc1cc(N)n(-c2nc(NCc3ccc(-c4cccnc4)nc3)c3ncn(C(C)C)c3n2)n1` [Compound 24, N-([2,3′-Bipyridin]-5-ylmethyl)-2-(5-amino-3-methyl-1H-pyrazol-1-yl)-9-isopropyl-9H-purin-6-amine], for which the GI50 stood at 3.44 ± 0.177 µM in the experiment with HCC1954 cells and 5.16 ± 0.365 µM in the experiment with SK-Br3 cells. Also, at CDK12/CyclinK (setting [1]), the IC50 turned out to be 2.35 µM.

For `CC(C)n1cnc2c(NCc3ccc(-c4cccnc4)nc3)nc(-c3cnc(N)nc3)nc21` [Compound 18l, N-([2,3′-Bipyridin]-5-ylmethyl)-2-(2-aminopyrimidin-5-yl)-9-isopropyl-9H-purin-6-amine], the GI50 came out at 0.162 ± 0.011 µM with HCC1954 cells and 0.242 ± 0.042 µM in the experiment with SK-Br3 cells. Also, the IC50 on CDK12/CyclinK (setting [1]) was 0.087 µM; on CDK12/CyclinK (read-out: CDK12/cyclinK IC50), less than 0.1 µM.

In the case of `CC(C)n1cnc2c(NCc3ccc(-c4cccnc4)nc3)nc(-c3cncnc3)nc21` [Compound 18k, N-([2,3′-Bipyridin]-5-ylmethyl)-9-isopropyl-2-(pyrimidin-5-yl)-9H-purin-6-amine], the GI50 in the experiment on HCC1954 cells amounted to 0.31 ± 0.041 µM; in the experiment on SK-Br3 cells it was 0.318 ± 0.149 µM. For the same molecule, the IC50 at CDK12/CyclinK (setting [1]) is 0.051 µM; at CDK12/CyclinK (read-out: CDK12/cyclinK IC50), less than 0.1 µM.

For `CC(C)n1cnc2c(NCc3ccc(-c4cccnc4)nc3)nc(-c3cccc(C(N)=O)c3)nc21` [Compound 18b, 3-(6-(([2,3′-Bipyridin]-5-ylmethyl)amino)-9-isopropyl-9H-purin-2-yl)benzamide], the GI50 amounted to 1.14 ± 0.304 µM with HCC1954 cells and 1.62 ± 0.248 µM with SK-Br3 cells. For the same molecule, the IC50 on CDK12/CyclinK (setting [1]) came out at 0.504 µM.

`CC(C)n1cnc2c(NCc3nc4ccc(F)c(F)c4[nH]3)nc(N3CCCC[C@H]3CCO)nc21` [Compound 2, reference compound]: the GI50 in the experiment on HCC1954 cells was found to be 0.069 ± 0.006 µM; in the experiment with SK-Br3 cells it was 0.094 ± 0.012 µM. Also, the IC50 on CDK12/CyclinK (setting [2]) is 0.0086 ± 0.0017 µM.

As for `CC(C)n1cnc2c(NCc3ccc(-c4cccnc4)nc3)nc(-c3cnc4ccccc4c3)nc21` [Compound 18g, N-([2,3′-Bipyridin]-5-ylmethyl)-9-isopropyl-2-(quinolin-3-yl)-9H-purin-6-amine], the GI50 is 4.23 ± 0.214 µM in the experiment on HCC1954 cells and 3.71 ± 0.557 µM in the experiment with SK-Br3 cells. The IC50 on CDK12/CyclinK (setting [1]) worked out at 0.486 µM.

For `CC(C)n1cnc2c(NCc3ccc(-c4cccnc4)nc3)nc(-c3ccnc(N)c3)nc21` [Compound 18j, N-([2,3′-Bipyridin]-5-ylmethyl)-2-(2-aminopyridin-4-yl)-9-isopropyl-9H-purin-6-amine], the GI50 in the experiment with HCC1954 cells was 0.354 ± 0.06 µM; with SK-Br3 cells, 0.71 ± 0.024 µM. Besides, the IC50 is 0.094 µM on CDK12/CyclinK (setting [1]) and less than 0.1 µM at CDK12/CyclinK (read-out: CDK12/cyclinK IC50).

Take `CC(C)n1cnc2c(NCc3ccc(-c4cccnc4)nc3)nc(-c3cn[nH]c3)nc21` [Compound 18n, N-([2,3′-Bipyridin]-5-ylmethyl)-9-isopropyl-2-(1H-pyrazol-4-yl)-9H-purin-6-amine]: the GI50 in the experiment on HCC1954 cells amounted to 1.17 ± 0.027 µM; with SK-Br3 cells, 1.99 ± 0.12 µM. Moreover, on CDK12/CyclinK (setting [1]), the IC50 worked out at 1.43 µM.

As for `CC(C)n1cnc2c(NCc3ccc(-c4cccnc4)nc3)nc(-c3ccccc3N)nc21` [Compound 19a, N-([2,3′-Bipyridin]-5-ylmethyl)-2-(2-aminophenyl)-9-isopropyl-9H-purin-6-amine], the values for the GI50 in the experiment on HCC1954 cells and in the experiment on SK-Br3 cells were 2.63 ± 0.448 µM and 2.61 ± 0.899 µM, respectively. The IC50 on CDK12/CyclinK (setting [1]) came to 0.619 µM.

Consider `CC[C@H](CO)Nc1nc(NCc2ccc(-c3ccccn3)cc2)c2ncn(C(C)C)c2n1` [R-CR8 (9), reference compound], for which the GI50 stood at 0.083 ± 0.011 µM in the experiment on HCC1954 cells and 0.101 ± 0.014 µM with SK-Br3 cells.

Take `CC(C)n1cnc2c(NCc3ccc(-c4cccnc4)nc3)nc(-c3ccc(N)nc3)nc21` [Compound 18i, N-([2,3′-Bipyridin]-5-ylmethyl)-2-(6-aminopyridin-3-yl)-9-isopropyl-9H-purin-6-amine]: the GI50 was found to be 0.278 ± 0.007 µM with HCC1954 cells and 0.376 ± 0.067 µM in the experiment on SK-Br3 cells. Besides, the IC50 at CDK12/CyclinK (setting [1]) was 0.065 µM; at CDK12/CyclinK (read-out: CDK12/cyclinK IC50) it was less than 0.1 µM.

`c1cncc(-c2ccc(CNc3nc(-c4cccnc4)nc4c3ncn4C3CCOCC3)cn2)c1` [Compound 28c, N-([2,3′-Bipyridin]-5-ylmethyl)-2-(pyridin-3-yl)-9-(tetrahydro-2H-pyran-4-yl)-9H-purin-6-amine]: the GI50 was 44.4 ± 2.46 µM in the experiment on HCC1954 cells and more than 100 µM in the experiment on SK-Br3 cells.
